Consider two compounds from BindingDB's records for doi:10.1021/jm030871u (2003).

In this experiment the target is Human immunodeficiency virus type 1 protease (Human immunodeficiency virus 1, UniProt Q72874). The experiment in a line: Competitive inhibition against HIV-1 Protease.

Molecules are shown by their SMILES. Residues, ends and D or L forms follow the SMILES beside them. *: point of attachment. X1 = CC(C)CCC[C@@H](C)[C@H]1CCC2C3CC=C4C[C@H](SC[C@@H]5CCN6CC[C@@H](CSCC(=O)*)NC6=N5)CC[C@]4(C)C3CC[C@@]21C; X2 = CC(C)(C)[Si](OCC1CCN2CCC(CSCC(=O)*)NC2=N1)(c1ccccc1)c1ccccc1; OBn = c1ccc(CO*)cc1; Bn = c1ccc(C*)cc1

For orientation: Ki means the dissociation constant of the complex between target and ligand, obtained from inhibition or displacement. High values mean weaker binding, low ones tighter binding. Regarding `CC(C)CCC[C@@H](C)[C@H]1CCC2C3CC=C4C[C@H](SC[C@@H]5CCN6CC[C@@H](CSCC(=O)NCC(=O)N[C@@H](C)C(=O)N[C@H](C(=O)N[C@@H](CC(C)C)C(=O)N[C@@H](CC(N)=O)C(=O)N[C@@H](Cc7ccccc7)C(=O)OCc7ccccc7)[C@@H](C)OCc7ccccc7)NC6=N5)CC[C@]4(C)C3CC[C@@]21C` (some centres not stated) (X1-GAT(Bn)LNF-OBn), the Ki amounted to 0.4 µM. `CC[C@H](C)[C@H](NC(=O)CNC(=O)CSCC1CCN2CCC(CO[Si](c3ccccc3)(c3ccccc3)C(C)(C)C)N=C2N1)C(=O)N[C@@H](CO)C(=O)N[C@@H](Cc1ccc(O)cc1)C(=O)N[C@@H](CC(N)=O)C(=O)N[C@@H](CC(C)C)C(=O)OC` (some centres not stated) [Bicyclic Guanidinium Subunit] (X2-GISYNL-OMe) gave a Ki of 6 µM.
